Source: patent US20060235036A1, “Vanilloid receptor ligands and their use in treatments” (priority 2005, published 2006)
Structures can show the parent of a compound that is named as a salt.

Molecular target: T1, human VR1 (Homo sapiens, UniProt Q8NER1)
T1 construct: expressed in transfected cells
Experiment: Human VR1 Capsaicin Antagonist Assay (45Ca2+ uptake, CHO cells stably expressing human VR1)
Format: cell-based
Conditions: capsaicin stimulus, Calcium-45 uptake
Experimental: Compounds may be assayed using Chinese Hamster Ovary cell lines stably expressing either human VR1 or rat VR1 under a CMV promoter. Cells can be cultured in Growth Medium, routinely passaged at 70% confluency using trypsin and plated in the assay plate 24 hours prior to compound evaluation. Possible Growth Medium: • DMEM, high glucose (Gibco 11965-084). • 10% Dialyzed serum (Hyclone SH30079.03). • 1× Non-Essential Amino Acids (Gibco 11140-050). • 1× Glutamine-Pen-Strep (Gibco 10378-016). • Geneticin, 450 μg/mL (Gibco 10131-035). Compounds can be diluted in 100% DMSO and tested for activity over several log units of concentration [40 μM-2 pM]. Compounds may be further diluted in HBSS buffer (pH 7.4) 0.1 mg/mL BSA, prior to evaluation. Final DMSO concentration in assay would be 0.5%. Each assay plate can be controlled with a buffer only and a known antagonist compound (either capsazepine or one of the described VR1 antagonists). Activation of VR1 can be achieved in these cellular assays using either a capsaicin stimulus (ranging from 0.1-1 μM) or by an acid stimulus (addition of 30 mM Hepes/Mes buffered at pH 4.1). Compounds may also tested in an assay format to evaluate their agonist properties at VR1. • Capsaicin Antagonist Assay: Compounds may be pre-incubated with cells (expressing either human or rat VR1) for 2 minutes prior to addition of Calcium-45 and Capsaicin and then left for an additional 2 minutes prior to compound washout. Capsaicin (0.5 […]) can be added in HAM's F12, 0.1 mg/mL BSA, 15 mM Hepes at pH 7.4. Final ^45Ca (Amersham CES3-2 mCi) at 10 μCi/mL. • Acid Antagonist Assay: Compounds can be pre-incubated with cells (expressing either human or rat VR1) for 2 minutes prior to addition of Calcium-45 in 30 mM Hepes/Mes buffer (Final Assay pH 5) and then left for an additional 2 minutes prior to compound washout. Final ^45Ca (Amersham CES3-2 mCi) at 10 μCi/mL. • Agonist Assay: Compounds can be incubated with cells (expressing either human or rat VR1) for 2 minutes in the presence of Calcium-45 prior to compound washout. Final ^45Ca (Amersham CES3-2 mCi) at 10 μCi/mL. • Compound Washout and Analysis: Assay plates can be washed using an ELX405 plate washer (Bio-Tek Instruments Inc.) immediately after functional assay. One can wash 3× with PBS Mg2^+/Ca^2+ free, 0.1 mg/mL BSA, aspirating between washes. Plates may be read using a MicroBeta Jet (Wallac Inc.). Compound activity may then calculated using appropriate computational algorithms.

T1 sequence (Q8NER1 whole entry): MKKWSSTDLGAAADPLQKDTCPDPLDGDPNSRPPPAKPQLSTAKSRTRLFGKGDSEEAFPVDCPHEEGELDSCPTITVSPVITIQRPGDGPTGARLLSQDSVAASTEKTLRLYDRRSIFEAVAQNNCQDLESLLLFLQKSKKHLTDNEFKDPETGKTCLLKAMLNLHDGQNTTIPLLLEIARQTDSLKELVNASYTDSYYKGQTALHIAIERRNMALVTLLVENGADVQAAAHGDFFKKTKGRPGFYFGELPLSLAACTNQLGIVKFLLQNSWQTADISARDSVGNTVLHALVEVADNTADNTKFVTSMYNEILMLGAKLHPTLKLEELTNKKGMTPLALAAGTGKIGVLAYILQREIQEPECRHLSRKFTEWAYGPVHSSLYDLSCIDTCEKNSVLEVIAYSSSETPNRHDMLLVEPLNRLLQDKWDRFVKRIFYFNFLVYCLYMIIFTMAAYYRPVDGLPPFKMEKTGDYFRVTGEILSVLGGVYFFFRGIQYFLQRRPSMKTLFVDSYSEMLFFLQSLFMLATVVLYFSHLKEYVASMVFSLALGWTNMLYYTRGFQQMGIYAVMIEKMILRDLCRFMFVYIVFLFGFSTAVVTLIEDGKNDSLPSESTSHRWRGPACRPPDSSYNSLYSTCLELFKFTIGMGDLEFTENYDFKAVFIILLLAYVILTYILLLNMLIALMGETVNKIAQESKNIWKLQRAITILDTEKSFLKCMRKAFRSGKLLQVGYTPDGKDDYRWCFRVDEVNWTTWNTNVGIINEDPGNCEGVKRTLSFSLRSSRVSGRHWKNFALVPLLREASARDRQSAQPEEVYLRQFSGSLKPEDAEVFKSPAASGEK

SMILES	IC50
CC(C)CN1CCCCC1CNc1nc(C(F)(F)F)ccc1-c1cc(Nc2cccc3c2CC(O)CC3)ncn1 (mixture of isomers) [Example 1, (2R,S)-8-(6-(2-(((2R,S)-1-Isobutylpiperidin-2-yl)methylamino)-6-(trifluoro-methyl)pyridin-3-yl)pyrimidin-4-ylamino)-1,2,3,4-tetrahydronaphthalen-2-ol hydrochloride]	< 100 nM
CC(C)(C)OC(=O)N1CCC[C@H]1C(=O)Nc1cc(C(F)(F)F)ccc1-c1cc(Nc2cccc3c2C[C@@H](O)CC3)ncn1 (mixture of isomers) [Example 2, (2S)-tert-Butyl 2-((2-(6-((7S)-7-hydroxy-5,6,7,8-tetrahydro-naphthalen-1-ylamino)pyrimidin-4-yl)-5-(trifluoromethyl)phenyl)-carbamoyl)-pyrrolidine-1-carboxylate and (2S)-tert-Butyl 2-((2-(6-((7S)-7-hydroxy-5,6,7,8-tetrahydro-naphthalen-1-ylamino)pyrimidin-4-yl)-5-(trifluoromethyl)phenyl)-carbamoyl)-pyrrolidine-1-carboxylate]	< 100 nM
CC(C)N1C(C)CC[C@H]1C(=O)Nc1cc(C(F)(F)F)ccc1-c1cc(Nc2cccc3c2CC(O)CC3)ncn1 (mixture of isomers) [Example 5, (2S, 5R,S, 7R,S)—N-(2-(6-(7-Hydroxy-5,6,7,8-tetrahydronaphthalen-1-ylamino)pyrimidin-4-yl)-5-(trifluoromethyl)phenyl)-1-isopropyl-5-methylpyrrolidine-2-carboxamide hydrochloride]	< 100 nM
CC1CC[C@@H](C(=O)Nc2cc(C(F)(F)F)ccc2-c2cc(Nc3cccc4c3CC(O)CC4)ncn2)N1 (mixture of isomers) [Example 4, (2S, 5R,S, 7R,S)—N-(2-(6-(7-Hydroxy-5,6,7,8-tetrahydronaphthalen-1-ylamino)pyrimidin-4-yl)-5-(trifluoromethyl)phenyl)-5-methylpyrrolidine-2-carboxamide hydrochloride]	< 100 nM
CC(C)N1CCC[C@H]1C(=O)Nc1cc(C(F)(F)F)ccc1-c1cc(Nc2cccc3c2C[C@H](O)CC3)ncn1 (mixture of isomers) [Example 3, (2S)—N-(2-(6-(7S)-7-Hydroxy-5,6,7,8-tetrahydronaphthalen-1-ylamino)pyrimidin-4-yl)-5-(trifluoromethyl)phenyl)-1-isopropylpyrrolidine-2-carboxamide hydrochloride and (2S)—N-(2-(6-(7R)-7-Hydroxy-5,6,7,8-tetrahydro-naphthalen-1-ylamino)pyrimidin-4-yl)-5-(trifluoromethyl)phenyl)-1-isopropylpyrrolidine-2-carboxamide hydrochloride]	< 100 nM
CC(C)N1CCC[C@H]1C(=O)Nc1cc(C(F)(F)F)ccc1-c1cc(Nc2cccc3c2C[C@@H](O)CC3)ncn1 (mixture of isomers) [Example 3, (2S)—N-(2-(6-(7S)-7-Hydroxy-5,6,7,8-tetrahydronaphthalen-1-ylamino)pyrimidin-4-yl)-5-(trifluoromethyl)phenyl)-1-isopropylpyrrolidine-2-carboxamide hydrochloride and (2S)—N-(2-(6-(7R)-7-Hydroxy-5,6,7,8-tetrahydro-naphthalen-1-ylamino)pyrimidin-4-yl)-5-(trifluoromethyl)phenyl)-1-isopropylpyrrolidine-2-carboxamide hydrochloride]	< 100 nM
CC(C)CN1C(C)CC[C@H]1C(=O)Nc1cc(C(F)(F)F)ccc1-c1cc(Nc2cccc3c2CC(O)CC3)ncn1 (mixture of isomers) [Example 6, (2S, 5R,S, 7R,S)—N-(2-(6-(7-Hydroxy-5,6,7,8-tetrahydronaphthalen-1-ylamino)pyrimidin-4-yl)-5-(trifluoromethyl)phenyl)-1-isobutyl-5-methylpyrrolidine-2-carboxamide hydrochloride]	< 100 nM
